{
  "source": "patent US20180027748A1",
  "about": "“METHOD FOR PRODUCING METABOLITE CAPABLE OF IMPROVING DROUGHT TOLERANCE USING MICROORGANISM, AND METHOD FOR IMPROVING DROUGHT TOLERANCE OF PLANT USING SAID METABOLITE” (priority 2015, published 2018)",
  "tested_on": "white radish seeds",
  "experiment": "Drought tolerance test on white radish after removal of aluminum foil",
  "format": "in vivo",
  "conditions": "foil removed, samples A/B/C 10/100/300 μg/mL·agar extract, D 1 μg/mL·agar ABA, dH2O control G 27%",
  "experimental": "Samples A, B, and C were prepared containing, respectively, 10, 100, and 300 μg/mL·agar of the drought tolerance improving metabolite producing bacterium extract obtained by the method described above. The samples were each dispensed into 10 test tubes.\nABA standard samples D, E, and F were prepared containing, respectively, 1, 10, and 20 μg/mL·agar of abscisic acid (ABA) as a standard. The samples were each dispensed into 10 test tubes.\nAfter a culture medium was prepared in each sample, one white radish seed was placed in each test tube. After each test tube was capped with aluminum foil, each seed was germinated in the dark.\nSamples A to C, D and G prepared in test method 1 described above were subjected to a drought tolerance test after the aluminum foil was removed from each test tube.",
  "data": [
    {"smiles": "CC1=CC(=O)CC(C)(C)C1(O)/C=C/C(C)=C\\C(=O)O", "note": "(stereo not shown) [Sample D, abscisic acid]", "values": [
      {"measurement": "percentage of sound individuals (drought tolerance level)", "value": 66, "unit": "%"}
    ]}
  ]
}
